In paper PMC5706701, “Development of a homogenous high-throughput assay for inositol hexakisphosphate kinase 1 activity” (PLoS ONE, 2017):
Where a name gives a salt, the structure may show the parent alone. Read-outs that look alike come from different tables or passages of the source.

Molecular target: T1, Human IP6K1 (Homo sapiens, UniProt Q92551)
T1 construct: GST (N, cleaved yes); made in house; host or cells: C43 E. coli, pGEX-6P-2
Test: IP6K1 high-throughput screen of the Sigma LOPAC (ADP-Glo Max, single point);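 also: final compound concentration 10µM in 5% DMSO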
Type: biochemical

[1] = LOPAC single-point screen, ADP-Glo Max raw signal per well
[2] = LOPAC single-point screen, Z-score from raw signal with plate average and StDev
[3] = LOPAC single-point screen, ADP-Glo Max luminescence raw signal per well
[4] = LOPAC single-point screen, Z-score from plate average and StDev
[5] = LOPAC single-point screen, Z-score against plate average and StDev
[6] = Sigma LOPAC single-point screen, ADP-Glo Max raw signal per well
[7] = Sigma LOPAC single-point screen, Z-score from plate average and StDev
[8] = LOPAC single-point screen, Z-score relative to plate average and StDev

T1 sequence (Q92551 whole entry): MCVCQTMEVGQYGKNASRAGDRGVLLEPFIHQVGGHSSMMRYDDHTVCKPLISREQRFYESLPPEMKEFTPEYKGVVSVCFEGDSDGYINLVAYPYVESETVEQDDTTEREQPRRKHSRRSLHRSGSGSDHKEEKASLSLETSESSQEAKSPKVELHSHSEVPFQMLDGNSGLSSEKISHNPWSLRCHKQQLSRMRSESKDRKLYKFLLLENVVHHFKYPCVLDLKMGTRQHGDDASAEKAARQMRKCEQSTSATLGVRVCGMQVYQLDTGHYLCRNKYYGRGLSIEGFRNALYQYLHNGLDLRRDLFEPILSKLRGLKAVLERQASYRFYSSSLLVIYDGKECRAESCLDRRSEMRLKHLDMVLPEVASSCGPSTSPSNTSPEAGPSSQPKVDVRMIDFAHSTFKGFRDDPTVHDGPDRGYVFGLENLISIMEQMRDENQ

SMILES: CCCCCCCCCCCCCCCCCC(=O)OC(CC(=O)O)C[N+](C)(C)C.[Cl-] (racemic) [DL-Stearoylcarnitine chloride]
- Raw Signal [1]: 55265
- Z-score [2]: -0.1474

SMILES: O=C(O)CNC(=O)C(CS)Cc1ccccc1 (racemic) [DL-Thiorphan]
- Raw Signal [1]: 55327
- Z-score [2]: -0.1354

SMILES: CC(N)(Cc1ccc(O)cc1)C(=O)O (racemic) [DL-alpha-Methyl-p-tyrosine]
- Raw Signal [3]: 72995
- Z-score [4]: 2.656

SMILES: CCCCCCCCCCCCCCC[C@H](O)[C@H](N)CO (racemic) [DL-erythro-Dihydrosphingosine]
- Raw Signal [1]: 54857
- Z-score [5]: -0.06296

SMILES: NC(C(=O)O)C(O)C(=O)O (racemic) [DL-threo-beta-hydroxyaspartic acid]
- Raw Signal [3]: 64938
- Z-score [4]: 1.984

SMILES: Oc1cc2c(cc1O)[C@H]1c3ccccc3CN[C@@H]1CC2 (racemic) [Dihydrexidine hydrochloride]
- Raw Signal [1]: 53851
- Z-score [2]: -0.2673

SMILES: CCCCCCCCCCCCCCCC(=O)OC(CC(=O)O)C[N+](C)(C)C.[Cl-] (racemic) [Palmitoyl-DL-Carnitine chloride]
- Raw Signal [1]: 51772
- Z-score [2]: -0.4405

SMILES: CCN1CCC[C@H]1CNC(=O)c1c(O)c(Cl)cc(Cl)c1OC.O=C(O)C(O)C(O)C(=O)O (racemic) [S(+)-Raclopride L-tartrate]
- Raw Signal [6]: 59305
- Z-score [7]: 0.6375

SMILES: Br.CCCN1CCC2c3cc(O)ccc3CCC21 (racemic) [cis-(±)-8-OH-PBZI hydrobromide]
- Raw Signal [1]: 53901
- Z-score [5]: -0.08275

SMILES: N[C@]1(C(=O)O)CC[C@H](C(=O)O)C1 (racemic) [trans-(±)-ACPD]
- Raw Signal [1]: 56973
- Z-score [2]: -0.1656

SMILES: O=C(O)[C@H]1C[C@H](C(=O)O)N1 (relative stereo) [trans-Azetidine-2,4-dicarboxylic acid]
- Raw Signal [1]: 57895
- Z-score [5]: -0.003188

SMILES: COc1ccc2c(c1OC)C(=O)OC2C1c2cc3c(cc2CCN1C)OCO3 (single isomer, unassigned; (+)) [(+)-Hydrastine]
- Raw Signal [1]: 55977
- Z-score [5]: 0.1645

SMILES: CC12NC(Cc3ccccc31)c1ccccc12.O=C(O)/C=C\C(=O)O (single isomer, unassigned; (+)) [(+)-MK-801 hydrogen maleate]
- Raw Signal [6]: 58157
- Z-score [7]: 0.6324

SMILES: CC(C)NCC(O)c1ccc(O)c(O)c1.Cl (single isomer, unassigned; (-)) [(-)-Isoproterenol hydrochloride]
- Raw Signal [3]: 50939
- Z-score [8]: -0.5804

SMILES: CN1CCCC1c1cccnc1.O=C(O)C(O)C(O)C(=O)O (single isomer, unassigned; (-)) [(-)-Nicotine hydrogen tartrate salt]
- Raw Signal: 64466
- Z-score: 1.692

SMILES: C[N+]1(C)[C@@H]2CC(OC(=O)[C@H](CO)c3ccccc3)C[C@H]1[C@@H]1O[C@@H]12.O=[N+]([O-])[O-] (single isomer, unassigned; (-)) [(-)-Scopolamine methyl nitrate]
- Raw Signal [1]: 57036
- Z-score [5]: 0.1966

SMILES: CC(N)C(O)c1ccc(O)c(O)c1 (single isomer, unassigned; (-)) [(-)-alpha-Methylnorepinephrine]
- Raw Signal [3]: 45337
- Z-score [8]: -1.996

SMILES: Nc1nc(Cl)nc2c1ncn2[C@@H]1O[C@H](COP(=O)(O)OP(=O)(O)OP(=O)(O)O)C(O)C1O (stereo in doubt)
- Raw Signal [3]: 49196
- Z-score [8]: -1.213

SMILES: Nc1ncnc2c1nc(Sc1ccc(Cl)cc1)n2C1OC2COP(=O)(O)OC2C1O (stereo in doubt) [8-(4-Chlorophenylthio)-cAMP sodium]
- Raw Signal [3]: 54805
- Z-score [8]: -0.5474

SMILES: CCCCC1(C2CCCC2)Cc2cc(OCC(=O)O)c(Cl)c(Cl)c2C1=O (stereo in doubt) [R(+)-Butylindazone]
- Raw Signal [1]: 53463
- Z-score [2]: -0.3461

SMILES: CCn1c(=O)c2nc(-c3ccccc3)[nH]c2n(CC)c1=O [1,3-Diethyl-8-phenylxanthine]
- Raw Signal [1]: 56931
- Z-score [2]: -0.173

SMILES: Cn1c(=O)c2[nH]c(-c3ccccc3)nc2n(C)c1=O [1,3-Dimethyl-8-phenylxanthine]
- Raw Signal [1]: 54517
- Z-score [5]: 0.02075

SMILES: CCCn1c(=O)c2c(ncn2C)n(CCC)c1=O [1,3-Dipropyl-7-methylxanthine]
- Raw Signal [6]: 58298
- Z-score [7]: 0.6359

SMILES: CCCn1c(=O)c2[nH]c(-c3ccc(S(=O)(=O)O)cc3)nc2n(CCC)c1=O [1,3-Dipropyl-8-p-sulfophenylxanthine]
- Raw Signal [3]: 54862
- Z-score [8]: -0.5374

SMILES: Br.Br.N=C(N)SCCc1cccc(CCSC(=N)N)c1 [1,3-PBIT dihydrobromide]
- Raw Signal [6]: 61855
- Z-score [7]: 1.133

SMILES: OC[C@H]1NC[C@@H](O)[C@@H]1O [1,4-Dideoxy-1,4-imino-D-arabinitol]
- Raw Signal [1]: 54688
- Z-score [2]: -0.09729

SMILES: Br.Br.N=C(N)SCCc1ccc(CCSC(=N)N)cc1 [1,4-PBIT dihydrobromide]
- Raw Signal [3]: 52088
- Z-score [8]: -0.7647

SMILES: Oc1cccc2c(O)nccc12 [1,5-Isoquinolinediol]
- Raw Signal [1]: 54537
- Z-score [5]: 0.02411

SMILES: Cn1c(=O)[nH]c2ncn(C)c2c1=O [1,7-Dimethylxanthine]
- Raw Signal [1]: 53863
- Z-score [2]: -0.2648

SMILES: NCCCCCCCCCCN [1,10-Diaminodecane]
- Z-score [2]: -0.1121

SMILES: O.c1cnc2c(c1)ccc1cccnc12 [1,10-Phenanthroline monohydrate]
- Raw Signal [3]: 52659
- Z-score [8]: -0.6537

SMILES: Cl.c1ccc2c(N3CCNCC3)cccc2c1 [1-(1-Naphthyl)piperazine hydrochloride]
- Raw Signal [1]: 55645
- Z-score [5]: -0.07359

SMILES: Oc1ccc(Cn2cc[nH]c2=S)cc1 [1-(4-Hydroxybenzyl)imidazole-2-thiol]
- Raw Signal [3]: 52381
- Z-score [8]: -0.5658

SMILES: Nn1nnc2ccccc21 [1-Aminobenzotriazole]
- Raw Signal [3]: 53212
- Z-score [8]: -0.828

SMILES: OC[C@H]1NC[C@H](O)[C@@H](O)[C@@H]1O [1-Deoxynojirimycin hydrochloride]
- Raw Signal [6]: 59013
- Z-score [7]: 0.7811

SMILES: Cl.Cl.Cn1cnc(CCN)c1 [1-Methylhistamine dihydrochloride]
- Raw Signal [1]: 52776
- Z-score [2]: -0.2718

SMILES: Cn1ccnc1 [1-Methylimidazole]
- Raw Signal [6]: 56921
- Z-score [7]: 0.4247

SMILES: S=C(Nc1ccccc1)Nc1nccs1 [1-Phenyl-3-(2-thiazolyl)-2-thiourea]
- Raw Signal [1]: 53752
- Z-score [2]: -0.1078

SMILES: N=C(N)NC(=N)Nc1ccccc1 [1-Phenylbiguanide]
- Raw Signal [3]: 52325
- Z-score [8]: -0.7186

SMILES: FC(F)(F)c1ccccc1-n1ccnc1 [1-[2-(Trifluoromethyl)phenyl]imidazole]
- Raw Signal [6]: 60208
- Z-score [7]: 0.8129

SMILES: Cc1cn([C@H]2C=C[C@@H](CO)O2)c(=O)[nH]c1=O [2 ,3 -didehydro-3 -deoxythymidine]
- Raw Signal [1]: 54462
- Z-score [2]: -0.1432

SMILES: Nc1ccn([C@H]2CC[C@@H](CO)O2)c(=O)n1 [2 ,3 -dideoxycytidine]
- Raw Signal [3]: 50390
- Z-score [8]: -0.9702

SMILES: c1ccc(-c2ccccn2)nc1 [2,2 -Bipyridyl]
- Raw Signal [1]: 56711
- Z-score [5]: 0.3136

SMILES: CC(=O)C(C)=NO [2,3-Butanedione monoxime]
- Raw Signal [3]: 66346
- Z-score [4]: 1.485

SMILES: CC(=O)C(C)=O [2,3-Butanedione]
- Raw Signal [1]: 53441
- Z-score [2]: -0.3505

SMILES: COC1=C(OC)C(=O)c2ccccc2C1=O [2,3-Dimethoxy-1,4-naphthoquinone]
- Raw Signal [6]: 57485
- Z-score [7]: 0.4708

SMILES: Nc1cc(=O)[nH]c(N)n1 [2,6-Diamino-4-pyrimidinone]
- Raw Signal [6]: 57244
- Z-score [7]: 0.4218

SMILES: O=C[C@H](Cl)[C@@H](O)[C@H](O)[C@H](O)CO [2-Chloro-2-deoxy-D-glucose]
- Raw Signal [6]: 57775
- Z-score [7]: 0.5297

SMILES: Nc1nc(Cl)nc2c1ncn2C1OC(CO)C(O)C1O (stereo not drawn) [2-Chloroadenosine]
- Raw Signal [1]: 58125
- Z-score [5]: 0.03732

SMILES: NCC(O)(CS(=O)(=O)O)c1ccc(Cl)cc1 (stereo not drawn) [2-Hydroxysaclofen]
- Raw Signal [6]: 61124
- Z-score [7]: 0.5655

SMILES: COc1ccc2[nH]c(I)c(CCNC(C)=O)c2c1 [2-Iodomelatonin]
- Raw Signal [1]: 55940
- Z-score [5]: 0.157

SMILES: Cc1[nH]c2ccc(O)cc2c1CCN.O=C(O)/C=C\C(=O)O [2-Methyl-5-hydroxytryptamine maleate]
- Raw Signal [1]: 56336
- Z-score [5]: 0.3264

SMILES: Nc1nc(Nc2ccccc2)nc2c1ncn2[C@@H]1O[C@H](CO)[C@@H](O)[C@H]1O [2-Phenylaminoadenosine]
- Raw Signal [1]: 55292
- Z-score [2]: -0.1422

SMILES: COc1cc2c(cc1O)CC[C@@H]1[C@@H]2CC[C@]2(C)[C@@H](O)CC[C@@H]12 [2-methoxyestradiol]
- Raw Signal [6]: 58620
- Z-score [7]: 0.7102

SMILES: N/C(=N\C(=O)c1nc(Cl)c(N)nc1N)NCc1ccc(Cl)c(Cl)c1 [3 ,4 -Dichlorobenzamil]
- Raw Signal [1]: 56444
- Z-score [5]: 0.2593

SMILES: Cc1cn([C@H]2C[C@H](N=[N+]=[N-])[C@@H](CO)O2)c(=O)[nH]c1=O [3 -Azido-3 -deoxythymidine]
- Raw Signal [6]: 61635
- Z-score [7]: 0.6555

SMILES: O=c1oc(Cl)c(Cl)c2ccccc12 [3,4-Dichloroisocoumarin]
- Raw Signal [3]: 52609
- Z-score [8]: -0.5195

SMILES: O=C(O)Cc1ccc(O)c(O)c1 [3,4-Dihydroxyphenylacetic acid]
- Raw Signal [6]: 57060
- Z-score [7]: 0.3844

SMILES: O=[N+]([O-])c1cc(O)c(O)c([N+](=O)[O-])c1 [3,5-Dinitrocatechol]
- Raw Signal [1]: 56696
- Z-score [5]: 0.3105
